Here are results for three compounds from US8492378B2, “GSK-3β inhibitor” (Takeda Pharmaceutical Company Limited, priority 2006, dated 2013).

What all share (test): Serine threonine kinase inhibitory activity ([γ-33P]ATP)
Common to all, as to format: biochemical

Assay [1] addresses ASK1 (Homo sapiens, UniProt Q99683). To be noted: read-out: 50% inhibitory activity against other kinases: ASK1. The method, then: (§1) Inhibitory action on various purified proteins of serine, threonine kinases (p38α, JNK1, IKKβ, ASK1, TAK1, MEKK1, PKCθ, GSK-3β, PLK1, TTK, Aurora A, MEK1, MEK5, B-RAF, ERK1) was examined. As a reaction mixture, 37.5 μL of 25 mM HEPES (pH 7.5), 10 mM magnesium acetate, 1 mM DTT, each concentration of purified protein and a synthesis substrate were used. The mixture was reacted in the presence or absence of a test compound (2.5 μL/the reaction mixture) dissolved in DMSO at each concentration at room temperature for 5 min. Further, 10 μL of a mixture of 2.5 μM ATP and 10 μCi/ml [γ-^33P]ATP (DAIICHI PURE CHEMICALS) was added and the mixture was reacted at room temperature for 30 min. After quenching the reaction, the amount of phosphorylated peptide was measured by Top-Count (Packard). The concentration of the test compound necessary for 50% inhibition (IC50 value) was calculated by PRISM 3.0 (GraphPad Software).

For assay [2], the target named is Aurora A (Homo sapiens, UniProt O14965). The following applies: read-out: 50% inhibitory activity against other kinases: Aurora A. The method, then: as §1
The target in assay [3] is B-RAF (Homo sapiens, UniProt P15056). The following applies: read-out: 50% inhibitory activity against other kinases: B-RAF. The method, then: as §1
Sequence of B-RAF (P15056 whole entry): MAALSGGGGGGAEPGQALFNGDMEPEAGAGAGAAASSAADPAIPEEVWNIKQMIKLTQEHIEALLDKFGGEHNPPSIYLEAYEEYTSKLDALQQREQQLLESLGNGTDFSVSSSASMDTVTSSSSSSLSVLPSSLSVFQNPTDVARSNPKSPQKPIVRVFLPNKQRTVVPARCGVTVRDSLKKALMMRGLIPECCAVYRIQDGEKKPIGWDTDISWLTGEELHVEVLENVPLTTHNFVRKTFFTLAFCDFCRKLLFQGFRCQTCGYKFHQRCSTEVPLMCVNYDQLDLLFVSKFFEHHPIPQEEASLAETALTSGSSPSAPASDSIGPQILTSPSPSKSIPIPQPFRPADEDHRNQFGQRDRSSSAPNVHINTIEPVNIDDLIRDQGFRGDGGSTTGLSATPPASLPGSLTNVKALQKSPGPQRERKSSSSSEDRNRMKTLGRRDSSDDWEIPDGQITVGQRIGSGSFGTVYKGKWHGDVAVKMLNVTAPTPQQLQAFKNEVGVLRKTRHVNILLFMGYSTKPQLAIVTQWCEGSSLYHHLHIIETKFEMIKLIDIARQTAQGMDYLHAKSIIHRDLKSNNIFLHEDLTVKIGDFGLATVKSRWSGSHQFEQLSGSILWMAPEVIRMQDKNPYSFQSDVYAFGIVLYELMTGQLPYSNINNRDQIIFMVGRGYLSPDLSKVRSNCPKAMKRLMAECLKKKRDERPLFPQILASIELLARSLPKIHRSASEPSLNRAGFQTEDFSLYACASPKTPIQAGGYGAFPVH
The target in assay [4] is ERK1 (Homo sapiens, UniProt P27361). The following applies: read-out: 50% inhibitory activity against other kinases: ERK1. On the procedure:
as §1

Assay [5] addresses T1, IKKβ (Homo sapiens, UniProt O14920).
T1 sequence (O14920 1-756): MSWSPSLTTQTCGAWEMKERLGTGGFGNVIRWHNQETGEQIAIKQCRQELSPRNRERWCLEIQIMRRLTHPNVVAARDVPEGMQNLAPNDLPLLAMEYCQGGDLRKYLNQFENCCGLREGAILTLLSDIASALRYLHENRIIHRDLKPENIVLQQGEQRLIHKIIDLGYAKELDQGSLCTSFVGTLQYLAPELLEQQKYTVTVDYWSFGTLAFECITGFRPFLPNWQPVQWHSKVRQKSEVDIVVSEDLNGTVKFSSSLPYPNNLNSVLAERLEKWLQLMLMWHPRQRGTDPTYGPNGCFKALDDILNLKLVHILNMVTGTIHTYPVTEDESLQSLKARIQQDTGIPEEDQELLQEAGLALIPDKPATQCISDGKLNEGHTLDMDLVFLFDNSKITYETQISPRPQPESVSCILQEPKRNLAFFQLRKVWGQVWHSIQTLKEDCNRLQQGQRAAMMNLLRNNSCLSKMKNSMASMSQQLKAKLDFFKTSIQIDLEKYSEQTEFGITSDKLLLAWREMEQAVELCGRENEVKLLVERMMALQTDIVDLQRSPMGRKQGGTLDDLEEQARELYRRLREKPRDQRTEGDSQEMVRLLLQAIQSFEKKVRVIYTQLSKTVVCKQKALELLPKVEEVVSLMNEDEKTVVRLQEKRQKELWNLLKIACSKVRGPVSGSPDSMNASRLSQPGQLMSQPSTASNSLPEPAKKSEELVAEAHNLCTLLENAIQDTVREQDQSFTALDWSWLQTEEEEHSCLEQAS
The following applies: read-out: 50% inhibitory activity against other kinases: IKKβ. The method, then: as §1

The target in assay [6] is JNK1 (Homo sapiens, UniProt P45983). To be noted: read-out: 50% inhibitory activity against other kinases: JNK1. The method, then: as §1
Sequence of JNK1 (P45983 whole entry): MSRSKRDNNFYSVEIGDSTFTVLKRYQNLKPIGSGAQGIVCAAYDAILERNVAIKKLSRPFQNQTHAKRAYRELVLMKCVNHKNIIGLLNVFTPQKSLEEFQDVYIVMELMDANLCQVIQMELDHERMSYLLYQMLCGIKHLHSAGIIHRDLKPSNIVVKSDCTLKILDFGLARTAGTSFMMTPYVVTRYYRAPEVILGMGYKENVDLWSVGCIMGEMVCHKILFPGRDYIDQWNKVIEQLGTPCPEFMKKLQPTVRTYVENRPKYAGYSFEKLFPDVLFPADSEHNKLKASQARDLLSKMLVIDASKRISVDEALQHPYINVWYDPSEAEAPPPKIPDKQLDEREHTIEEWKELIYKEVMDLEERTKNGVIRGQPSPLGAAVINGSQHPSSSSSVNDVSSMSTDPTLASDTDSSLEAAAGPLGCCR
In assay [7] the target is MEK1 (Homo sapiens, UniProt Q02750). To be noted: read-out: 50% inhibitory activity against other kinases: MEK1. On the procedure:
as §1

The target of assay [8] is MEK5 (Homo sapiens, UniProt Q13163). To be noted: read-out: 50% inhibitory activity against other kinases: MEK5. The method, then:
as §1

Assay [9] concerns the target MEKK1 (Homo sapiens, UniProt Q13233). To be noted: read-out: 50% inhibitory activity against other kinases: MEKK1. The method, then: as §1
Assay [10] has as its target PKCθ (Homo sapiens, UniProt Q04759). The following applies: read-out: 50% inhibitory activity against other kinases: PKCθ. On the procedure: as §1
Assay [11] concerns the target PLK1 (Homo sapiens, UniProt P53350). The following applies: read-out: 50% inhibitory activity against other kinases: PLK1. The method, then: as §1
Assay [12] addresses TAK1 (Homo sapiens, UniProt O43318). To be noted: read-out: 50% inhibitory activity against other kinases: TAK1. The method, then:
as §1

Assay [13] has as its target T2, TTK (Homo sapiens, UniProt P33981).
T2 sequence (P33981 1-857): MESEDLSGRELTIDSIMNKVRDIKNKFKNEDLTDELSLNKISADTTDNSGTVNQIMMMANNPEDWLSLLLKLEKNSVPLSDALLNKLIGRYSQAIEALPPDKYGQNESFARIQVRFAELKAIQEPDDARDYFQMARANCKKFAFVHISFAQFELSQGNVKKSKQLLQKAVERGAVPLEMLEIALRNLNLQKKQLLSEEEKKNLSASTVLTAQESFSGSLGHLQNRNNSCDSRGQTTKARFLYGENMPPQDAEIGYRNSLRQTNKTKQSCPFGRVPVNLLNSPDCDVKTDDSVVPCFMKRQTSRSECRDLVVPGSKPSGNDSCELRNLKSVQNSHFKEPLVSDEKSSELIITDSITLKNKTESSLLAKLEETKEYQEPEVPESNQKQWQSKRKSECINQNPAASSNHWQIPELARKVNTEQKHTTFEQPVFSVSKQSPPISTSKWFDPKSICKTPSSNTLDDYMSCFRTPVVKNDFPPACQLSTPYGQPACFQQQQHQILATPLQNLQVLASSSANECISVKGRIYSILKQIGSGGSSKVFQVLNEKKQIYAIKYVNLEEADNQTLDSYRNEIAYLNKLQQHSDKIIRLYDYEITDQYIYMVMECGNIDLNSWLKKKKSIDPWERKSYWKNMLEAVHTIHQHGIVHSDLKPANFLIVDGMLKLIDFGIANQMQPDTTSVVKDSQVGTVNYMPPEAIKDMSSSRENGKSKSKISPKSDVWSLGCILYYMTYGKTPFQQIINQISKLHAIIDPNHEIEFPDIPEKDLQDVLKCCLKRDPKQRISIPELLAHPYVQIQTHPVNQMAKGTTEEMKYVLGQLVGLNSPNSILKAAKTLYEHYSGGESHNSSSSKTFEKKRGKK
The following applies: read-out: 50% inhibitory activity against other kinases: TTK. On the procedure: as §1

The target of assay [14] is p38α (Homo sapiens, UniProt Q16539). To be noted: read-out: 50% inhibitory activity against other kinases: p38α. The method, then:
as §1

Assay [15] addresses GSK-3β (Homo sapiens, UniProt P49841). To be noted: [γ-33P]ATP kinase panel; read-out: IC50 values against GSK-3β. On the procedure: as §1, with “Further, 10 μL of a mixture of 2.5 μM ATP and 10 μCi/ml [γ-^33P]ATP (DAIICHI PURE CHEMICALS) was added and the mixture was reacted at room temperature for 30 min.” left out, “(Packard).” for “(Packard). The concentration of the test compound necessary for 50% inhibition (IC50 value) was calculated by PRISM 3.0 (GraphPad Software).”

Sequence of ERK1 (P27361 whole entry): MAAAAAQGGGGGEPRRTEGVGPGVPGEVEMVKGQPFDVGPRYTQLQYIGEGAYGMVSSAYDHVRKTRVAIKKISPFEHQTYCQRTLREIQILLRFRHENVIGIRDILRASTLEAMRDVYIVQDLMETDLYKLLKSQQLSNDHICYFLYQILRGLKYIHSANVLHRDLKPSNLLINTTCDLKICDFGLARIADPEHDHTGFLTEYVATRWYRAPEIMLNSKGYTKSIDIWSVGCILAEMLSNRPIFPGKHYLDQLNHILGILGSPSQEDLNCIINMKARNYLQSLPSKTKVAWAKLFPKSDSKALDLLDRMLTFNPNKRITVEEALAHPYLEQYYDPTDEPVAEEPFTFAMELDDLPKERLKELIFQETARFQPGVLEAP
Sequence of TAK1 (O43318 whole entry): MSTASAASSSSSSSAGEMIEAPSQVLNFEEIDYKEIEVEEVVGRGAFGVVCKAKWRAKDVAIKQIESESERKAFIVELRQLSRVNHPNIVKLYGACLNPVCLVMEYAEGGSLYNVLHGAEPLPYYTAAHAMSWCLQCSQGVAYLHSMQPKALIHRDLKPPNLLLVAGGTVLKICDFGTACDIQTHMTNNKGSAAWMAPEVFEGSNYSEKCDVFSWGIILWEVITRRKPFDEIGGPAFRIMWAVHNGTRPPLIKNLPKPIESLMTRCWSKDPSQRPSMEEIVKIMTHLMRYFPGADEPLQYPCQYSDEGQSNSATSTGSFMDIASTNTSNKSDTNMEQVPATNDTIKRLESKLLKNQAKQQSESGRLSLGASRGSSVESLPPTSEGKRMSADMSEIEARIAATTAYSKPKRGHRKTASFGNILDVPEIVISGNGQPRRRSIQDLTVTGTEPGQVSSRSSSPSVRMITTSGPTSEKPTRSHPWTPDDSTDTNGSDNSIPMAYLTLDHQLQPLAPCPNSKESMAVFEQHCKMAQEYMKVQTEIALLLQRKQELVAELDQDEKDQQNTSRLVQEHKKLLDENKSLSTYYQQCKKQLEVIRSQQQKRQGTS
Sequence of TAK1 (Q15750 whole entry, further chain): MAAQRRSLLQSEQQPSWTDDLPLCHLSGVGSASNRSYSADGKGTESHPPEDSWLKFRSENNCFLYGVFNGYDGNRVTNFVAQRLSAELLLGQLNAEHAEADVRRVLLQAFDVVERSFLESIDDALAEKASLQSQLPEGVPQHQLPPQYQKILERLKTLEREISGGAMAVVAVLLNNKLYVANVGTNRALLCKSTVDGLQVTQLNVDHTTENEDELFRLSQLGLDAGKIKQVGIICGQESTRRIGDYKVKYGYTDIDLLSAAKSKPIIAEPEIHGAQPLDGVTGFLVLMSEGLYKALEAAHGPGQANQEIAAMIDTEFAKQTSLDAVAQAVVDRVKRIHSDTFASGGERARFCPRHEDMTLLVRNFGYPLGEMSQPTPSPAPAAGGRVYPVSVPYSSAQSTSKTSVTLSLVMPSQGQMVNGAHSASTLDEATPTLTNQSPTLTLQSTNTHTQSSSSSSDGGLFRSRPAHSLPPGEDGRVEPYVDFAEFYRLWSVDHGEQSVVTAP
Sequence of PKCθ (Q04759 whole entry): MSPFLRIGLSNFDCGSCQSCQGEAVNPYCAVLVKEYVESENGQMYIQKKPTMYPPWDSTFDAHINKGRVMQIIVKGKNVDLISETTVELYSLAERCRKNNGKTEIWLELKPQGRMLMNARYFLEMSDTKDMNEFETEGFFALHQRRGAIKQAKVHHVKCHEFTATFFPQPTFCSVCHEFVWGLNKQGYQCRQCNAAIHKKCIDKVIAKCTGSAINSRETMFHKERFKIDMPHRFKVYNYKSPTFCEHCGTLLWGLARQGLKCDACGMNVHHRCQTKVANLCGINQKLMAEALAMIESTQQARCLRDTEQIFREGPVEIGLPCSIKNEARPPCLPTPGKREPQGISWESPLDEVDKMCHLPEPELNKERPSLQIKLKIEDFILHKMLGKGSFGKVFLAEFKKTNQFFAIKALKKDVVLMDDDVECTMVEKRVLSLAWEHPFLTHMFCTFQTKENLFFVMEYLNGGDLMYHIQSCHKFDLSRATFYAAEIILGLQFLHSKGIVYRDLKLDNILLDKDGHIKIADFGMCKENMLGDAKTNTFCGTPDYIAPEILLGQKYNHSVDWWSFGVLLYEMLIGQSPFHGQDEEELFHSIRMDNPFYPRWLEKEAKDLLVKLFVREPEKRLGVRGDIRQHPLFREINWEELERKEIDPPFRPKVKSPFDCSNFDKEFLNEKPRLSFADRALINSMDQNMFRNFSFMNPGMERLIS
Sequence of ASK1 (Q99683 whole entry): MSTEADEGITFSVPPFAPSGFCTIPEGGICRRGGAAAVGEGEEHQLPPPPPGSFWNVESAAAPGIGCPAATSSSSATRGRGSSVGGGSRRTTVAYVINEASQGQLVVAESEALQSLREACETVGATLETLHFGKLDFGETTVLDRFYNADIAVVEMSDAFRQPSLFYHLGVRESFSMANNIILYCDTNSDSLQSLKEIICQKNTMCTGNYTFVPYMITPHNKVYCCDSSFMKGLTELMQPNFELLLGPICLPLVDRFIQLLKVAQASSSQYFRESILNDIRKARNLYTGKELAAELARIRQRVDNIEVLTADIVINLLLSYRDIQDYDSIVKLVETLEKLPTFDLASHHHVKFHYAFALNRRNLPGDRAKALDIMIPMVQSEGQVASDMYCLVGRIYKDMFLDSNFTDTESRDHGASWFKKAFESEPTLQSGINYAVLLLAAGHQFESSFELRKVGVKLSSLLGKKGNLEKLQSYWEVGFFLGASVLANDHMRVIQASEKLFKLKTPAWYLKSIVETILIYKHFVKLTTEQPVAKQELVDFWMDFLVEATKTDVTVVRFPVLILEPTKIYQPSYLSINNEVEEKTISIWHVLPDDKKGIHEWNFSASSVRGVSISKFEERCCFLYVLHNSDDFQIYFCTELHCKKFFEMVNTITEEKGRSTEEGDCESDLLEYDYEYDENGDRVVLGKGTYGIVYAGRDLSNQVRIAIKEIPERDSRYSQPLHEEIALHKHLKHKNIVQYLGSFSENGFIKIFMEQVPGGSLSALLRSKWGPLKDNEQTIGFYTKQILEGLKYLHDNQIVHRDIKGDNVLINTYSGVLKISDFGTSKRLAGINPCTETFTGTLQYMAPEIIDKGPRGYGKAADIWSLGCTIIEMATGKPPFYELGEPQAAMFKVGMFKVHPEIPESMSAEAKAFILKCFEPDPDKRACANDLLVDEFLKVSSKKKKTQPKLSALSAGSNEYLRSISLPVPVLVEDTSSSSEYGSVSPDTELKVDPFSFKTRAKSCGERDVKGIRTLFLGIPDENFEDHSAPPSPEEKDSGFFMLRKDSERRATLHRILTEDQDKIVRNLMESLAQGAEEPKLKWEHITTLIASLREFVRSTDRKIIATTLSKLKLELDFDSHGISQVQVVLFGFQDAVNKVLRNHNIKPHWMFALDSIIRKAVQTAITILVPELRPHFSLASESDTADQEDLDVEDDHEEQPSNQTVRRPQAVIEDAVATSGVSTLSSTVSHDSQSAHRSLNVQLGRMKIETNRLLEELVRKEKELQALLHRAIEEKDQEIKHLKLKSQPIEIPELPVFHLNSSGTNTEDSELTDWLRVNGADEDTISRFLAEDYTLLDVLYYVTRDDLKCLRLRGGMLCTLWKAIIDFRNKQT

Regarding `COc1ccc(CSc2nnc(-c3ccc4c(c3)OCO4)o2)cc1F` [Reference Example 71, 2-(1,3-benzodioxol-5-yl)-5-[(3-fluoro-4-methoxybenzyl)thio]-1,3,4-oxadiazole, reference compound], the IC50 in assay [1], in assay [2], in [3], in [4], in [5] and in [6] was > 10 µM each time. For the same compound, the IC50 in assay [7], in assay [8], in [9], in assay [10], in assay [11] and in assay [12] was > 10 µM each time. Also, the IC50 in assay [13] and in assay [14] was > 10 µM throughout.
`COc1ccc(-c2coc3ccc(-c4nnc(SC)o4)cc23)cc1` [Example 165, 2-[3-(4-methoxyphenyl)-1-benzofuran-5-yl]-5-(methylthio)-1,3,4-oxadiazole]: the IC50 in [15] is 0.19 µM; in assay [1], > 10 µM; in assay [2], > 10 µM; in assay [3] it was > 10 µM; in assay [4], > 10 µM; in [5], > 10 µM. The IC50 in [6], in [7], in assay [8], in assay [9], in assay [10] and in assay [11] was > 10 µM throughout. In addition, the IC50 in assay [12], in [13] and in assay [14] was > 10 µM in each case.
As for `COc1ccc(CSc2nnc(-c3ccnc(N)c3)o2)cc1F` [Example 209, 4-[5-[(3-fluoro-4-methoxybenzyl)thio]-1,3,4-oxadiazol-2-yl]pyridin-2-amine], the IC50 was 0.14 µM in assay [15]; > 10 µM in assay [1]; > 10 µM in [2]; > 10 µM in [3]; > 10 µM in [4]; > 10 µM in assay [5]. Moreover, the IC50 in assay [6], in assay [7], in assay [8], in assay [9], in assay [10] and in assay [11] was > 10 µM throughout. In addition, the IC50 in assay [12], in [13] and in [14] was > 10 µM in each case.
